The text below walks through data of patent US8101159B2, “In vivo methods of identifying compounds which target suppressed cancer cells” (The Board of Regents of the University of Oklahoma, priority 2005, dated 2012).

The subject of one experiment is J82 cells. The experiment can be described thus: Cell proliferation dose-response (CFDA-AM), cells on SISgel vs non-confluent monolayers. It is filed as cell-based. The procedure:
Plating of cells for screening. Three-dimensional gel cultures with Matrigel were made by layering 50 μl of ice cold Matrigel into wells of a Costar 3610 white, clear bottom 96-well plates (Corning, Corning, N.Y.) allowed to gel at 37° C. Confluent cells were trypsinized with 1 ml 0.25% trypsin −1 mM EDTA, and 30,000 were added to wells containing the gelled matrices. The cells were fed with 50 μl of their respective media containing 10% fetal calf serum. To establish non-confluent monolayers, cells were plated at a cell density of 10,000/well 24 hours prior to drug treatments.
Screening of compounds. […] Plates were then read by a FLUOstar Optima plate reader (BMG LABTECH, Durham, N.C.) using 385 nm excitation, 428 nm emission filter. […]
Drug screening. The percent inhibition of cell proliferation (as determined by CFDA-AM cleavage) as compared to untreated cells was calculated for each drug in the wells of plates. The ratio of percent inhibition of the same drug of cells grown on SISgel as compared to non-confluent monolayers also was calculated. […]
Dose-response relations. Data were graphed as percent inhibition of proliferation as compared to untreated cells and from this EC50 values calculated using sigmoidal dose-response non-linear regression analysis (GraphPad Prism 4.0 software, San Diego, Calif.). […]

A further experiment deals with suppressed cancer cells. Nature of the experiment: Library screen and dose-response, cells on normal matrix vs cells on plastic. Conditions: FIGS. 3A, 3B, 6A-6C. It is filed as cell-based. The procedure: Screening of compounds. The National Cancer Institute Developmental Therapeutics Program (NCI DTP) diversity set of 1990 compounds1 was obtained by material transfer agreement and was diluted to a final concentration of 166.7 μM in serum-containing media and placed onto cells for 72 hours at 37° C. and 5% CO2. A marker of cell proliferation using the substrate 5-carboxyfluorescein diacetate acetoxymethyl ester (CFDA-AM) cleaved to fluorescein by non-specific cellular esterases was used. Briefly, media containing a final concentration of 5 μM CFDA-AM (Molecular Probes, Eugene, Oreg.) was added in PBS for two h at 37° C. Plates were then read by a FLUOstar Optima plate reader (BMG LABTECH, Durham, N.C.) using 385 nm excitation, 428 nm emission filter.
(§1) Dose-response relations of lead compounds. To 100 μl media on cells was added 100 μl of a 2× (666.7 μM) stock of either doxorubicin, tetrandrine or o-cresolphthalein in completed media in a single column in a 96-well plate. 1:3 dilutions were made from this highest dose by removing 66.7 μl into the next column of cells containing 133 μl media. Cells were incubated with drug for 72 hours, then the CFDA-AM assay completed as described above.
Drug screening. The percent inhibition of cell proliferation (as determined by CFDA-AM cleavage) as compared to untreated cells was calculated for each drug in the wells of plates. The ratio of percent inhibition of the same drug of cells grown on SISgel as compared to non-confluent monolayers also was calculated. All library compounds were screened twice for consistency.
(§2) Dose-response relations. Data were graphed as percent inhibition of proliferation as compared to untreated cells and from this EC50 values calculated using sigmoidal dose-response non-linear regression analysis (GraphPad Prism 4.0 software, San Diego, Calif.). Dose-response relation data were compared to one another using two-way ANOVA with Bonferroni post-test (GraphPad Prism 4.0 software, San Diego, Calif.).
SISgel (90 μl) is added to wells of a 96-well plate and allowed to gel. Cancer cells in 50 μl of nutrient (such as, for example, J82 bladder cancer cell, RT4 cancer cells, TCCSUP cancer cells, 5637 cancer cells, MDA-MB-468 breast cancer cells, or B16-F10 skin tumor (or any metastatic murine melanoma)) are added to each well and allowed to attach and grow. After 24 hours, the test compounds are added to wells at 10 μM concentration. The cells are allowed to grow in the presence of the test compound for 24 hours, at which time the number of cells (or survival or mortality) are estimated by a fluorometric method. In one embodiment, the fluorometric method is an assay performed using an esterase substrate, 5-carboxyfluorescein diacetate acetoxymethyl ester (CFDA) (available from Molecular Probes, Eugene, Oreg., USA), however, any suitable assay for measuring cell survival or mortality known by those of ordinary skill in the art may be used. Examples of fluorometers which can be used include, but are not limited to, FLUOStar Optima plate reader (BMG Biotech), FL600 fluorescent plate reader (Bio-Tek Instruments), Victor2 plate reader (Wallac), FluoroCount BF10000 fluorescent microplate reader (Packard), CytoFluor® 4000 (Applied Biosystems), Bio-Tek Synergy, BMG FLUOstar Galaxy and OPTIMA, PerkinElmer Victor™, PerkinElmer HTS 7000, TECAN SpectraFluor Plus, Thermo LabSystems Fluoroskan Ascent, and the like.
The cell number results are compared to those observed in cells grown conventionally on plastic in nearly confluent monolayers that show approximately the same growth rate as the cells on SISgel. […] In other embodiments, the ratio used may be, for example, less than two fold or greater than two fold as long as the cell number or survival on non-suppressing cell support matrix is greater than the number of cells on the suppressing cell support matrix. Preferably, each positive result is then confirmed by a full dose-response curve. […]

The subject of another experiment is MDA-MB-468 cells. The experiment can be described thus: Complete dose response, cells in SISgel vs monolayers or Matrigel. It is filed as cell-based. Conditions: FIGS. 8A-8B. Here is the method: as §1, §2
(§3) SISgel (90 μl) is added to wells of a 96-well plate and allowed to gel. […] Examples of fluorometers which can be used include, but are not limited to, FLUOStar Optima plate reader (BMG Biotech), FL600 fluorescent plate reader (Bio-Tek Instruments), Victor2 plate reader (Wallac), FluoroCount BF10000 fluorescent microplate reader (Packard), CytoFluor® 4000 (Applied Biosystems), Bio-Tek Synergy, BMG FLUOstar Galaxy and OPTIMA, PerkinElmer Victor™, PerkinElmer HTS 7000, TECAN SpectraFluor Plus, Thermo LabSystems Fluoroskan Ascent, and the like. […]

The test system of another experiment is B16-F10 cells. The experiment is described as above. Type of experiment: cell-based, murine. Conditions: FIGS. 9A-9B. Here is the method: as §1, §2, §3
Experiment [1] relates to J82 metastatic bladder cancer cells. The experiment can be described thus: In vivo flank xenograft, GFP-tagged cells co-injected with suppressive SISgel. Conditions: nude mice, 35 mg/kg Monday, Wednesday and Friday from day 8. Here is the method:
Flank xenograft model. J82 cells stably expressing green fluorescent protein (GFP) were prepared as follows. pLEGFP-C1 retrovirus (Clontech, Mountain View, Calif.) was co-transfected with the pVSV-G vector (Clontech, Mountain View, Calif.) which contains a viral envelope gene into the packaging cell line GP2-293 (Clontech, Mountain View, Calif.). Supernatant from the packaging cells containing the infective virus was collected every 24 hours for 4 days. Fluorescent target cells were made by infecting J82s, a urothelial transitional cell carcinoma cell line (ATCC, Manassas, Va.), with 1 ml of fresh, virus containing, supernatant/well containing 100,000 target cells along with 8 μg/ml of polybrene (Sigma Aldrich, St. Louis, Mo.). Each application of viral supernatant was filtered through a 0.4 μM syringe filter before application to target cells. Supernatant was removed and fresh virus containing media replenished on target cells every 24 hours until 4 changes of media were completed. […]
(§4) In sterile 500 μl centrifuge tubes, placed on ice, 100 μl of cell suspension was mixed with either 100 μl ice-cold prepared SISgel or ice-cold Matrigel and mixed well. […] The area and intensity of the tumor was measured using Adobe Photoshop by first selecting the tumor area, then counting pixels above a threshold selected to eliminate background, non-tumor areas. The integrated intensity was calculated by multiplying the average intensity of detected pixels by the number of pixels detected.
(§5) In this experiment, the activities of three compounds identified by the in vitro screening method were compared against both ECM-suppressed (SISgel, right) and actively growing (Matrigel, left) J82 metastatic bladder cancer cells. […] When tumors were first visible fluorescently (8 days after implantation), 35 mg/kg Bordeaux Red, tetrabromofluorescein, or Wool Violet 2R were injected Monday, Wednesday and Friday and tumor size was measured using fluorescence microscopy. A representative time course of fluorescence imaging is shown from a single animal for each treatment group. […]

For experiment [2] the test system is unchanged. Nature of the experiment: In vivo flank xenograft, GFP-tagged cells co-injected with permissive Matrigel. Conditions: nude mice; for activity against actively growing cells in vivo (fluorescence imaging): 35 mg/kg Monday, Wednesday and Friday from day 8. Here is the method: Flank xenograft model. J82 cells stably expressing green fluorescent protein (GFP) were prepared as follows. pLEGFP-C1 retrovirus (Clontech, Mountain View, Calif.) was co-transfected with the pVSV-G vector (Clontech, Mountain View, Calif.) which contains a viral envelope gene into the packaging cell line GP2-293 (Clontech, Mountain View, Calif.). Supernatant from the packaging cells containing the infective virus was collected every 24 hours for 4 days. Fluorescent target cells were made by infecting J82s, a urothelial transitional cell carcinoma cell line (ATCC, Manassas, Va.), with 1 ml of fresh, virus containing, supernatant/well containing 100,000 target cells along with 8 μg/ml of polybrene (Sigma Aldrich, St. Louis, Mo.). Each application of viral supernatant was filtered through a 0.4 μM syringe filter before application to target cells. Supernatant was removed and fresh virus containing media replenished on target cells every 24 hours until 4 changes of media were completed. Virus containing media was replaced with Minimum Essential Media, MEM, (Life Technologies, Carlsbad, Calif.) containing 1% nonessential amino acids, 1% L-glutamine, 1% sodium pyruvate and 10% Fetal Calf Serum, and cells were allowed to grow to 90% confluence. Stable transfects were selected through sequential sorting and enrichment of fluorescent cells using flow cytometry.
as §4, with “well. The mix was immediately injected into either the right or left flank of a 5-week old nude mouse, nu/nu-nuBR, (Charles River Laboratories, Wilmington, Mass.). Caliper measurements of tumor size were taken every week for the length of the study as were fluorescent images.” for “well.”
as §5

On to `Cc1cc(C)c(NC(=O)/C=C/c2ccccc2)c(C)c1` [NSC 191384], for which the “activity against cancer cells under suppressing conditions compared with non-suppressing cell culture (dose-response, FIG. 2)” value in the experiment with J82 cells was “more active against cancer cells grown under the suppressing conditions”. Further, the “sensitivity of cells on normal matrix compared with cells grown on plastic” value with suppressed cancer cells is given as “several fold increased sensitivity”.
On to `CC(C)=CCC(OC(=O)C=C(C)C)C1=CC(=O)c2c(O)ccc(O)c2C1=O` (stereo not drawn) [NSC140377], for which the “sensitivity of cells on normal matrix compared with cells grown on plastic” value in the experiment on suppressed cancer cells is recorded as “several fold increased sensitivity”.
For the compound `O=S(=O)([O-])c1ccc2c(N=Nc3cccc4ccccc34)c(O)c(S(=O)(=O)[O-])cc2c1.[Na+].[Na+]` [Bordeaux Red], in the experiment on suppressed cancer cells, the “sensitivity of cells on normal matrix compared with cells grown on plastic” value is on record as “several fold increased sensitivity”. Also, the “EC50 of cells grown in SISgel compared with monolayers or Matrigel” value in the experiment on MDA-MB-468 cells and with B16-F10 cells was “lower EC50 values” in each case. The “effect on ECM-suppressed cells in vivo (fluorescence imaging)” value (shortened to “effect on ECM-suppressed cells in vivo”) in experiment [1] was “caused disappearance of the cells”. Moreover, in experiment [2], the “activity against actively growing cells in vivo (fluorescence imaging)” value (from here on “activity against actively growing cells”) was “none of the three compounds had any activity”.
In the case of `CC1=C(N2CC2)C(=O)C(CO)=C(N2CC2)C1=O` [NSC 697726], in the experiment on suppressed cancer cells, the “sensitivity of cells on normal matrix compared with cells grown on plastic” value was “several fold increased sensitivity”.
Take Wool Violet 2R: the “sensitivity of cells on normal matrix compared with cells grown on plastic” value in the experiment on suppressed cancer cells is reported as “several fold increased sensitivity”. For the same compound, the “effect on ECM-suppressed cells in vivo” value in experiment [1] is reported as “caused disappearance of the cells”. In experiment [2], the “activity against actively growing cells” value was “none of the three compounds had any activity”.
With `O=C1OC2(c3ccc(O)cc3Oc3cc(O)ccc32)c2c(Br)c(Br)c(Br)c(Br)c21` [3,4,5,6-tetrabromofluorescein], the “sensitivity of cells on normal matrix compared with cells grown on plastic” value in the experiment on suppressed cancer cells is “several fold increased sensitivity”. Besides, the “EC50 of cells grown in SISgel compared with monolayers or Matrigel” value in the experiment with MDA-MB-468 cells and with B16-F10 cells was “lower EC50 values” throughout. In addition, in experiment [1], the “effect on ECM-suppressed cells in vivo” value was “caused disappearance of the cells”. In experiment [2] (35 mg/kg), the “rate of tumor growth in Matrigel treated animals compared with controls” value is on record as “weak inhibition of tumor growth”. Besides, in experiment [2], the “activity against actively growing cells” value is “none of the three compounds had any activity”.
